# Measurements reported in ChEMBL document CHEMBL1134479 (J Med Chem, 2001).
# Experiments:
# Estrogen receptor [1] = target: T1, Estrogen receptor (Homo sapiens, UniProt P03372); test: In vitro inhibition of [3H]17-beta-estradiol binding to human estrogen receptor alpha
# T1 sequence (P03372 whole entry): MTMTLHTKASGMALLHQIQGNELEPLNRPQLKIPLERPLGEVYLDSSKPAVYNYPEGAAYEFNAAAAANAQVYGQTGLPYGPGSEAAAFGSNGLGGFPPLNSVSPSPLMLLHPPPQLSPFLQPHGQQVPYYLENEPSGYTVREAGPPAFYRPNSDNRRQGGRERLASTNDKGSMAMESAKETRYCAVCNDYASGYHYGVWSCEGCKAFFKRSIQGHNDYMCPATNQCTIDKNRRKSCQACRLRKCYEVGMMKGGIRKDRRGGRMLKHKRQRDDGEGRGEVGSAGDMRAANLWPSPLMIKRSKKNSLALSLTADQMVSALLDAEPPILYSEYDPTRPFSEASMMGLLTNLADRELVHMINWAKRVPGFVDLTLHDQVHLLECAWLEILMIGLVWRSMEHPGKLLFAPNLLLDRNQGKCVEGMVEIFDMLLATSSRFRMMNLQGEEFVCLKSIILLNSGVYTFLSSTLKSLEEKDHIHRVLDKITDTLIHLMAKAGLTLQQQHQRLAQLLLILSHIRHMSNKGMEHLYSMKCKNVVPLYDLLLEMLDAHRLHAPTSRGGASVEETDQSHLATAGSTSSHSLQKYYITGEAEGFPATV
# Estrogen receptor [2] = target: T1, Estrogen receptor; test: In vitro antagonist effect on estrogen receptor alpha transcriptional activation in MCF-7 cells against 10 pM 17-beta-estradiol
# Estrogen receptor beta = Estrogen receptor beta (Homo sapiens, UniProt Q92731)
# Estrogen receptor beta, sequence (Q92731 whole entry): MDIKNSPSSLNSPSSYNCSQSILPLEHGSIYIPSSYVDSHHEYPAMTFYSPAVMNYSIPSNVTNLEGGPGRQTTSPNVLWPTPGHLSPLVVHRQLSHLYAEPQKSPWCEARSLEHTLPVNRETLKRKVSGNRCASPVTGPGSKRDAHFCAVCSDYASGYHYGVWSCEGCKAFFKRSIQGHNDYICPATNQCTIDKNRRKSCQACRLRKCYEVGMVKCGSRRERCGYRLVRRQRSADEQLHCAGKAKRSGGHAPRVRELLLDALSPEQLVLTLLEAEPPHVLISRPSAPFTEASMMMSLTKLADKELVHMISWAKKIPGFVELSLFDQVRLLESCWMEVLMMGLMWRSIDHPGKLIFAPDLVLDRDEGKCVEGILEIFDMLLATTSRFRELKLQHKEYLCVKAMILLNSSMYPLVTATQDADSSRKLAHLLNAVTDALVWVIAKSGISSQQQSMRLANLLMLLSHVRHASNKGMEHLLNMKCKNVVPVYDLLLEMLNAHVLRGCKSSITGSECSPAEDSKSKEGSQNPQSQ
# Description: In vitro inhibitory concentration against [3H]17-beta-estradiol binding to human estrogen receptor 2
Compound,IC50 (Estrogen receptor [1]) [nM],IC50 (Estrogen receptor [2]) [nM],IC50 (Estrogen receptor beta) [nM]
Cc1c(-c2ccc(O)cc2)n(CCCCCCN2CCCC2)c2ccc(O)cc12,25,69,242
Cc1c(-c2ccc(O)cc2)n(Cc2ccc(OCCN3CCCCC3)cc2)c2ccc(O)cc12 [PIPENDOXIFENE],,,40
